The text below walks through data of patent US4698350A, “1-ethyl-6-fluoro-1,4-dihydro- 7-(2,6-dimethyl-4-pyridinyl)-4-oxo-3-quinolinecarboxylic acid and antibacterial use thereof” (Sterling Drug Inc., priority 1984, dated 1987).

One assay relates to periodontal diseases. The settings on record: cited from earlier work; for usefulness in treating periodontal disease (in words): Genco 1981.
For another assay, the system named is F. nucleatum. Nature of the assay: Agar dilution MIC, anaerobic microorganisms. It counts as cell-based. The following applies: Fusobacterium nucleatum, 48 h. The method, then: (§1) 1. Maintenance. Prior to use, all strains were maintained in the lyophilized state. During the study, cultures were examined on blood agar basal medium supplemented with 5.0% (v/v) defibrinated rabbit blood. Culture transfer was accomplished weekly with all cultures being incubated in an anaerobic atmosphere (GasPak jar; BBL).
(§2) 2. Agar Medium. The basal test medium consisted of trypticase soy agar (40 g), yeast extract (1 g), glucose (2 g) and 960 ml of distilled water pH 7.2. [Mashimo et al., J. Clin. Micro. 17, 187-191 (1983)]. Subsequent to sterilization and cooling to 50° C., the medium was supplemented with 4% (v/v) defibrinated rabbit blood and 0.5 μg/ml menadione (Vitamin K3) The agent under evaluation was also added at this time to the concentration desired. Subsequent to pouring of the plates, they were permitted to dry at 4° C. for 24 hr.
(§3) 3. Determination of Agent MIC. The minimal inhibitory concentration (MIC) of the various test agents was determined using an agar dilution technique. Agents and appropriate reference compounds were added to achieve a series of concentrations ranging between 32 μg/ml and 0.007 μg/ml. The inocula were prepared from 96-hr. cultures grown on the maintenance medium. Subsequent to a purity evaluation, colonies were removed and suspended in trypticase soy broth supplemented with 5 μg/ml menadione and 2% lysed rabbit blood filtrate to achieve an OD650 of 0.1 (this corresponded to approximately 10^8 cells/ml). Cultures were inoculated aerobically on the modified trypticase soy blood agar plates by use of a Steer's replicator (which delivers about 10^5 cells per spot). The plates were allowed to dry for a time not exceeding 30 min. and then incubated at 37° C. under an atmosphere of […], 10% H2 and 5% CO2 maintained in an anaerobic chamber (Coy Manufacturing Co.) for 48 hr. The MIC was defined as the lowest concentration completely inhibiting growth.
(§4) Tetracycline stock solutions (1 mg/ml) were made subsequent to dissolution in water. Stock solutions (1 mg/ml) of the remaining test compounds were made subsequent to dissolution in 1/10 N NaOH.
Background: In agar dilution, organisms are placed on agar that contains the substance at set levels.

A further assay relates to B. gingivalis. Nature of the assay: Agar dilution MIC, anaerobic microorganisms. It counts as cell-based. The following applies: Porphyromonas gingivalis, 48 h. How it is done: as §1, §2, §3, §4
The test system of another assay is F. polymorphum. Nature of the assay: Agar dilution MIC, anaerobic microorganisms. It counts as cell-based. The following applies: 48 h. The method, then: as §1, §2, §3, §4
The test system of a further assay is B. oralis. Nature of the assay: Agar dilution MIC, anaerobic microorganisms. The settings on record: Hoylesella oralis, 48 h. It counts as cell-based. How it is done:
as §1, §2, §3, §4

For a further assay, the system named is B. fragilis. As to the kind of experiment: Agar dilution MIC, anaerobic microorganisms. It is filed as cell-based. The settings on record: Bacteroides fragilis, 48 h. How it is done: as §1, §2, §3, §4
The subject of another assay is B. melaninogenicus. Nature of the assay: Agar dilution MIC, anaerobic microorganisms. It counts as cell-based. The following applies: 48 h. The method, then:
as §1, §2, §3, §4

A further assay deals with B. intermedius. Nature of the assay: Agar dilution MIC, anaerobic microorganisms. The settings on record: Prevotella intermedia, 48 h. It counts as cell-based. How it is done: as §1, §2, §3, §4
The test system of a further assay is A. actinomycetemcomitans. Nature of the assay: Agar dilution MIC, anaerobic microorganisms. It counts as cell-based. The settings on record: Aggregatibacter actinomycetemcomitans, 48 h. How it is done:
as §1, §2, §3, §4

The test system of another assay is Capnocytophaga suptigena. As to the kind of experiment: Agar dilution MIC, anaerobic microorganisms. It counts as cell-based. The following applies: 48 h. The method, then:
as §1, §2, §3, §4

For another assay, the system named is Eikenella corrodens. As to the kind of experiment: Agar dilution MIC, anaerobic microorganisms. It is filed as cell-based. The settings on record: 48 h. The method, then: as §1, §2, §3, §4
For the next assay, the system named is A. viscosus. As to the kind of experiment: Agar dilution MIC, anaerobic microorganisms. It is filed as cell-based. The following applies: Actinomyces viscosus, 48 h. The method, then:
as §1, §2, §3, §4

The subject of the next assay is Wolinella recta. As to the kind of experiment: Agar dilution MIC, anaerobic microorganisms. It counts as cell-based. The following applies: Campylobacter rectus, 48 h. How it is done:
as §1, §2, §3, §4

The subject of the next assay is Campylobacter sputorum. As to the kind of experiment: Agar dilution MIC, anaerobic microorganisms. It counts as cell-based. The settings on record: 48 h. How it is done: as §1, §2, §3, §4
Assay [1] concerns all thirteen of the target anaerobic microorganisms. Nature of the assay: Antimicrobial activity against anaerobic microorganisms. It counts as cell-based. How it is done: as §1, §2, §3, §4
Where [2] appears, read: B. melaninogenicus, read-out: MIC.
[3] abbreviates: A. actinomycetemcomitans, read-out: MIC.
Where [4] appears, read: Capnocytophaga suptigena, read-out: MIC.

≈ marks a conversion by molar mass, not a printed value. Like-named read-outs stand apart in the source and are kept apart here.

`CN(C)C1C(=O)C(C(N)=O)=C(O)C2(O)C(=O)C3=C(O)c4c(O)cccc4C(C)(O)C3CC12` (centres unmarked) [9,424]: in the assay on periodontal diseases, the “usefulness in treating periodontal disease (in words)” value is “particularly useful”. Besides, the “activity against microorganisms considered to participate in periodontal disease (in words)” value in the assay with periodontal diseases is “not active against all the microorganisms”. Moreover, the MIC against F. nucleatum is 0.75 µg/mL (≈ 1.69 µM); in the assay on B. gingivalis, 0.12 µg/mL (≈ 0.27 µM); in the assay on F. polymorphum, 0.12 µg/mL (≈ 0.27 µM); in the assay on B. oralis it was 0.12 µg/mL (≈ 0.27 µM); in the assay with B. fragilis it was 1 µg/mL (≈ 2.25 µM); in the assay on B. melaninogenicus it was 0.5 µg/mL (≈ 1.13 µM). Also, the MIC against B. intermedius was 2 µg/mL (≈ 4.5 µM); with A. actinomycetemcomitans, 1 µg/mL (≈ 2.25 µM); in the assay on Capnocytophaga suptigena (Capnocytophaga) it was 1 µg/mL (≈ 2.25 µM); against Eikenella corrodens it was 2 µg/mL (≈ 4.5 µM); against A. viscosus it was 2 µg/mL (≈ 4.5 µM).

On to `CCn1cc(C(=O)O)c(=O)c2ccc(-c3ccncc3)cc21` [35,213, 1-ethyl-1,4-dihydro-4-oxo-7-(4-pyridinyl)-3-quinolinecarboxylic acid], for which the MIC in the assay with F. nucleatum (F. nucleatum, read-out: MIC) is greater than 10 µg/mL; in the assay with B. gingivalis (B. gingivalis, read-out: MIC), greater than 10 µg/mL; with F. polymorphum (F. polymorphum, read-out: MIC), greater than 10 µg/mL; with B. oralis (B. oralis, read-out: MIC), greater than 10 µg/mL; against Wolinella recta, 0.5 µg/mL (≈ 1.7 µM); in the assay with B. fragilis (B. fragilis, read-out: MIC), greater than 10 µg/mL. The MIC against Campylobacter sputorum was greater than 10 µg/mL; with B. melaninogenicus (setting [2]), 8 µg/mL (≈ 27.2 µM); with B. intermedius (B. intermedius, read-out: MIC), 0.5 µg/mL (≈ 1.7 µM); with A. actinomycetemcomitans (setting [3]) it was 0.12 µg/mL (≈ 0.408 µM); in the assay with Capnocytophaga suptigena (setting [4]) it was 1 µg/mL (≈ 3.4 µM); with Eikenella corrodens (read-out: MIC), 8 µg/mL (≈ 27.2 µM). In addition, the MIC in the assay with A. viscosus (A. viscosus, read-out: MIC) is greater than 10 µg/mL.

On to `CCn1cc(C(=O)O)c(=O)c2cc(F)c(N3CCN(C)CC3)cc21` [50,150, 1-ethyl-6-fluoro-1,4-dihydro-7-(4-methyl-1-piperazinyl)-4-oxo-3-quinolinecarboxylic acid], for which the “antimicrobial activity (in words)” value in assay [1] is on record as “less active”. The MIC with F. nucleatum (F. nucleatum, read-out: MIC) was found to be 8 µg/mL (≈ 24 µM); with B. gingivalis (B. gingivalis, read-out: MIC), 4 µg/mL (≈ 12 µM); in the assay on F. polymorphum (F. polymorphum, read-out: MIC), 8 µg/mL (≈ 24 µM); with B. oralis (B. oralis, read-out: MIC), 4 µg/mL (≈ 12 µM); in the assay with Wolinella recta it was 0.25 µg/mL (≈ 0.75 µM); in the assay with B. fragilis (B. fragilis, read-out: MIC) it was 8 µg/mL (≈ 24 µM). The MIC against Campylobacter sputorum is 4 µg/mL (≈ 12 µM); with B. melaninogenicus (setting [2]), 4 µg/mL (≈ 12 µM); in the assay with B. intermedius (B. intermedius, read-out: MIC), 0.5 µg/mL (≈ 1.5 µM); with A. actinomycetemcomitans (setting [3]) it was 0.06 µg/mL (≈ 0.18 µM); with Capnocytophaga suptigena (setting [4]), 0.25 µg/mL (≈ 0.75 µM); in the assay with Eikenella corrodens (read-out: MIC) it was 4 µg/mL (≈ 12 µM). Further, the MIC in the assay with A. viscosus (A. viscosus, read-out: MIC) was greater than 10 µg/mL.

Regarding `CCn1cc(C(=O)O)c(=O)c2cc(F)c(N3CCNCC3)cc21` [50,297, 1-ethyl-6-fluoro-1,4-dihydro-4-oxo-7-(1-piperazinyl)-3-quinolinecarboxylicacid], in assay [1], the “antimicrobial activity (in words)” value is given as “less active”. Also, the MIC with F. nucleatum (F. nucleatum, read-out: MIC) was 8 µg/mL (≈ 25.1 µM); in the assay on B. gingivalis (B. gingivalis, read-out: MIC), 4 µg/mL (≈ 12.5 µM); in the assay with F. polymorphum (F. polymorphum, read-out: MIC), greater than 10 µg/mL; in the assay on B. oralis (B. oralis, read-out: MIC), 4 µg/mL (≈ 12.5 µM); against Wolinella recta it was 0.12 µg/mL (≈ 0.376 µM); in the assay on B. fragilis (B. fragilis, read-out: MIC), greater than 10 µg/mL. Besides, the MIC in the assay with Campylobacter sputorum came out at 2 µg/mL (≈ 6.26 µM); with B. melaninogenicus (setting [2]), 4 µg/mL (≈ 12.5 µM); in the assay with B. intermedius (B. intermedius, read-out: MIC), 0.5 µg/mL (≈ 1.57 µM); in the assay on A. actinomycetemcomitans (setting [3]), 0.06 µg/mL (≈ 0.188 µM); in the assay with Capnocytophaga suptigena (setting [4]) it was 0.5 µg/mL (≈ 1.57 µM); in the assay with Eikenella corrodens (read-out: MIC), 4 µg/mL (≈ 12.5 µM). For the same compound, in the assay with A. viscosus (A. viscosus, read-out: MIC), the MIC was greater than 10 µg/mL.

For `Cc1ncc([N+](=O)[O-])n1CCO` [metronidazole], in the assay on periodontal diseases, the “usefulness in treating periodontal disease (in words)” value is listed as “particularly useful” and the “activity against microorganisms considered to participate in periodontal disease (in words)” value is “not active against all the microorganisms”.
